From ChEMBL document CHEMBL5291721, “A preclinical secondary pharmacology resource illuminates target-adverse drug reaction associations of marketed drugs” (Nat Commun, 2023)

Assays:
[1] = target: Sodium-dependent serotonin transporter (Homo sapiens, UniProt P31645)
[2] = target: T1, Equilibrative nucleoside transporter 1 (Homo sapiens, UniProt Q99808)
T1 sequence (Q99808 whole entry): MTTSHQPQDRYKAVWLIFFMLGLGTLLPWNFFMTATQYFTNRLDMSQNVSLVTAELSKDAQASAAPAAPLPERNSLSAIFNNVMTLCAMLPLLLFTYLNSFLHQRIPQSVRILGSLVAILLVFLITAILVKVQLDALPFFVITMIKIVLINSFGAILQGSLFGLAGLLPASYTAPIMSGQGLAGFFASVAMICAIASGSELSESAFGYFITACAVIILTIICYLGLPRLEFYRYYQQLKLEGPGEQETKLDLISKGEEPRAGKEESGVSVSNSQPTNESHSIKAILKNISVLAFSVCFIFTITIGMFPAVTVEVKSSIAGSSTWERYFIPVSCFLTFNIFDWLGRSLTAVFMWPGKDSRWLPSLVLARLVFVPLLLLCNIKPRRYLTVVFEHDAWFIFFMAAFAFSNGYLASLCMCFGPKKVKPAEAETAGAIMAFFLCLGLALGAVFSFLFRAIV

Progesterone receptor = target: T2, Progesterone receptor (Homo sapiens, UniProt P06401); format: functional
T2 sequence (P06401 whole entry): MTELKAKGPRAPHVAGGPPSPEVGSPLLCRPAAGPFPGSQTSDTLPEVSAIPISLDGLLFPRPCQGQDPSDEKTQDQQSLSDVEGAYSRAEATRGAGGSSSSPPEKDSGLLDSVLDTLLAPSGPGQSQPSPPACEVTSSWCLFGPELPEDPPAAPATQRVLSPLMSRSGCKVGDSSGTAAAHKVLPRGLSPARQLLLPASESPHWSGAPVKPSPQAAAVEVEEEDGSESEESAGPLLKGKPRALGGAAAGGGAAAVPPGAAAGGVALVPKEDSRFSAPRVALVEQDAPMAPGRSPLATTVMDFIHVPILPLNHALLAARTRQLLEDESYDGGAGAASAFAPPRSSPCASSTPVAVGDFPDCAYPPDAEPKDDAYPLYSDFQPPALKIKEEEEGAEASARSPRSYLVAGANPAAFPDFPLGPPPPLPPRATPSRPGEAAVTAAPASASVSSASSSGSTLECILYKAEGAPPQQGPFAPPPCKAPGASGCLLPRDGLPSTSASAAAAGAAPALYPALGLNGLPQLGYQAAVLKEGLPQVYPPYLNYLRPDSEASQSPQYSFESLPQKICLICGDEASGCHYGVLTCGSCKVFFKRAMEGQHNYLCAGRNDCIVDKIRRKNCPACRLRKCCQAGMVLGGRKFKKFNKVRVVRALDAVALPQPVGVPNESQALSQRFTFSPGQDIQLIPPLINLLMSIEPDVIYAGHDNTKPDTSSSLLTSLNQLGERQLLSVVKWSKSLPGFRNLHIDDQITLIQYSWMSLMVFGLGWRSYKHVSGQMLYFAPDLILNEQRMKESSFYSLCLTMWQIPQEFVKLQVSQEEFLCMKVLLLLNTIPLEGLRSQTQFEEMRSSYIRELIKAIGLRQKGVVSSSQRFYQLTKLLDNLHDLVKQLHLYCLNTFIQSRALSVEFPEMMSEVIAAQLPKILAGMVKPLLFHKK

[3] = target: Gamma-aminobutyric acid receptor subunit alpha-1 (Rattus norvegicus, UniProt P62813); format: functional
Gamma-aminobutyric acid receptor subunit alpha-1, sequence (P62813 whole entry): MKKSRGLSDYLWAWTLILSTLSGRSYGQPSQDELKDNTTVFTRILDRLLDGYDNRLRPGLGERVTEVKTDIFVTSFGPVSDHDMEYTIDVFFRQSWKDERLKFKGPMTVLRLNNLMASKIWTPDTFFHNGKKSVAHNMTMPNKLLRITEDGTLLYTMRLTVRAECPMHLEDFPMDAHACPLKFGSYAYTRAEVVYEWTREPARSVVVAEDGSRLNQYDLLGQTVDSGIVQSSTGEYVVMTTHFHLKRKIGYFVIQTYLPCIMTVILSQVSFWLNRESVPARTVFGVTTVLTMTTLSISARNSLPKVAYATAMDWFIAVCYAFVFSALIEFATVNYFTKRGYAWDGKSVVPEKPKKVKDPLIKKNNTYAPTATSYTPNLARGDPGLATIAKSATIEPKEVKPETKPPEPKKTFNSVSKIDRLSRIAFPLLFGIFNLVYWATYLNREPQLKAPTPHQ

Glucocorticoid receptor = target: T3, Glucocorticoid receptor (Homo sapiens, UniProt P04150)
T3 sequence (P04150 whole entry): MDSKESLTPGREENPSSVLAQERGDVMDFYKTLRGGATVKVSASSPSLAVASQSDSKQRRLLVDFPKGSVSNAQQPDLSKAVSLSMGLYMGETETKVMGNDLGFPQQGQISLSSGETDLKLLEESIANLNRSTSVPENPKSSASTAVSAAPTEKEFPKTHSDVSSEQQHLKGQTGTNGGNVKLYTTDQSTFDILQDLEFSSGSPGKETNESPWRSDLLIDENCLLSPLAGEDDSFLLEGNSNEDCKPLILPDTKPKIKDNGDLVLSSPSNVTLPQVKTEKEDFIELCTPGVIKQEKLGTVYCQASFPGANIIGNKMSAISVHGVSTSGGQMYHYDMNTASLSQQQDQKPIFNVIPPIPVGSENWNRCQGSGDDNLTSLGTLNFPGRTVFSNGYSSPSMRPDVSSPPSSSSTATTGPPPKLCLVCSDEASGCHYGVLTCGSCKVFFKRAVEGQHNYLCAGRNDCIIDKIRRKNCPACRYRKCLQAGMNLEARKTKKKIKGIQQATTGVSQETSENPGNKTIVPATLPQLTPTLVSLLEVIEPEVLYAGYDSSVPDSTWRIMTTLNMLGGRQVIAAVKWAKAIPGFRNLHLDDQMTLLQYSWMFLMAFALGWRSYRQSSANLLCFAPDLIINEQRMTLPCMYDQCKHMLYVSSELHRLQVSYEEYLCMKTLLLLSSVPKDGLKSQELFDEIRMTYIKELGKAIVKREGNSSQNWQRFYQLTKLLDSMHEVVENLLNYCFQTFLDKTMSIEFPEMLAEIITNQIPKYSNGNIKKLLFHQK

Thromboxane A2 receptor = target: T4, Thromboxane A2 receptor (Homo sapiens, UniProt P21731)
T4 sequence (P21731 whole entry): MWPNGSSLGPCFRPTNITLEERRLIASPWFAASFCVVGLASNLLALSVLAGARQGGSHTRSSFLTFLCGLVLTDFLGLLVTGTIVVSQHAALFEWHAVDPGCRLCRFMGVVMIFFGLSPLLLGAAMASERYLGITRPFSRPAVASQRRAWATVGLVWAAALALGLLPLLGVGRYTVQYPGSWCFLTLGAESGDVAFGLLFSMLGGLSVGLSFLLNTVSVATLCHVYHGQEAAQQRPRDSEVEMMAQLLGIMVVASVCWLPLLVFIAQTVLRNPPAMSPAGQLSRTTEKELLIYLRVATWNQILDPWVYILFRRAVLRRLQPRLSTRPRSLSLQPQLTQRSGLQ
Further: assay procedure not described here.

Sodium-dependent serotonin transporter, sequence (P31645 whole entry): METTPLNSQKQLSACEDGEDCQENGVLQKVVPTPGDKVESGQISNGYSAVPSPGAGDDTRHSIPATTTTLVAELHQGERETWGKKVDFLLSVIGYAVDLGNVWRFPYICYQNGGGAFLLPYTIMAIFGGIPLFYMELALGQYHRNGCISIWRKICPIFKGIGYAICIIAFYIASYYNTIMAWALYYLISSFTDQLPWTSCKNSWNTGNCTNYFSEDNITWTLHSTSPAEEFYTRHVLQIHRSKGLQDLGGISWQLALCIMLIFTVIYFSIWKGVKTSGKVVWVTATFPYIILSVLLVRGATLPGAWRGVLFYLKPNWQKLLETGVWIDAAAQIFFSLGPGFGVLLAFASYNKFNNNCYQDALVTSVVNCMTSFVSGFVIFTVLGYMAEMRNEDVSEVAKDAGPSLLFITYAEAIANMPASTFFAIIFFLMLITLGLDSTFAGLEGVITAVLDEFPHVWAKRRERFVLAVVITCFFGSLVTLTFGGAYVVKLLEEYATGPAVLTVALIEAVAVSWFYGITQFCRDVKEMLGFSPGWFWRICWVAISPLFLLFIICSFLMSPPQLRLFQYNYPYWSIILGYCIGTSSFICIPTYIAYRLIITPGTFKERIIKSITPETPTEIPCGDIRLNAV

| Structure (SMILES) | AC50 [1] [µM] | also measured |
| --- | --- | --- |
| CC(=O)OCC(=O)[C@@]1(O)CC[C@H]2[C@@H]3CCC4=CC(=O)CC[C@]4(C)[C@H]3[C@@H](O)C[C@@]21C [HYDROCORTISONE ACETATE] | > 30 |  |
| CC(COc1ccccc1)NC(C)C(O)c1ccc(O)cc1 (stereo unspecified) [ISOXSUPRINE] | 5.55 |  |
| O=C(CCC/C=C\C[C@@H]1[C@@H](CC[C@@H](O)CCc2ccccc2)[C@H](O)C[C@@H]1O)OCCCCO[N+](=O)[O-] [LATANOPROSTENE BUNOD] | > 30 |  |
| Cc1oc(=O)oc1COC(=O)[C@@H]1N2C(=O)[C@@H](NC(=O)[C@H](N)c3ccccc3)[C@H]2SC1(C)C [LENAMPICILLIN] | > 30 |  |
| COc1ccc(OC)c(C(O)C(C)N)c1 (stereo unspecified) [METHOXAMINE] | > 30 |  |
| CC1(CCN2CCCCC2)C(=O)CCc2ccccc21 (stereo unspecified) [NEPINALONE] | > 30 |  |
| COC(=O)C[C@](O)(CCCC(C)(C)O)C(=O)O[C@@H]1C(OC)=C[C@]23CCCN2CCc2cc4c(cc2[C@H]13)OCO4 [OMACETAXINE MEPESUCCINATE] | > 30 |  |
| COc1cccc(C(=O)CCN[C@@H](C)[C@H](O)c2ccccc2)c1 [OXYFEDRINE] | 4.77 |  |
| CC[N+](C)(CC)CCOC(=O)C(O)(c1ccccc1)C1CCCCC1 (stereo unspecified) [OXYPHENONIUM] | > 30 |  |
| C[C@@H]1C[C@H]2[C@@H]3C[C@H](F)C4=CC(=O)C=C[C@]4(C)[C@H]3[C@@H](O)C[C@]2(C)[C@@]1(O)C(=O)CO [PARAMETHASONE] | > 30 |  |
| CCC[C@H](N[C@@H](C)C(=O)N1[C@H](C(=O)O)C[C@@H]2CCCC[C@@H]21)C(=O)OCC [PERINDOPRIL] | > 30 |  |
| N[C@@H](Cc1ccccc1)C(=O)O [PHENYLALANINE] | > 30 |  |
| CCCn1cnc2c1c(=O)n(CCCCC(C)=O)c(=O)n2C [PROPENTOFYLLINE] | > 30 |  |
| Clc1ccc(C(Cn2ccnc2)OCc2csc3c(Cl)cccc23)c(Cl)c1 (stereo unspecified) [SERTACONAZOLE] | 2.89 |  |
| CC(OCCN1CCCCCC1)(c1ccccc1)c1ccc(Cl)cc1 (stereo unspecified) [SETASTINE] | 21 |  |
| COc1cc(C)c2c(Oc3cccc(C(F)(F)F)c3)c(OC)cc(NC(C)CCCN)c2n1 (stereo unspecified) [TAFENOQUINE] | 10.3 |  |
| O=S1(=O)CCN(CN2CCS(=O)(=O)NC2)CN1 [TAUROLIDINE] | > 30 | AC50 [2]: > 30000 nM; AC50 (Progesterone receptor): > 30 µM; AC50 [3]: > 10 µM; AC50 (Glucocorticoid receptor): > 10 µM; AC50 (Thromboxane A2 receptor): > 30 µM |
| CCCSc1nc(N[C@@H]2C[C@H]2c2ccc(F)c(F)c2)c2nnn([C@@H]3C[C@H](OCCO)[C@@H](O)[C@H]3O)c2n1 [TICAGRELOR] | > 30 | AC50 [2]: 365 nM |
| c1ccc2c(SC3=NCCN3)c[nH]c2c1 [TINAZOLINE] | > 30 |  |
| COc1ccc2c(C(=S)N(C)CC(=O)O)cccc2c1C(F)(F)F [TOLRESTAT] | > 30 |  |
